Laboratory results as given in paper PMC3740032 (Bioorganic & medicinal chemistry, 2013).
Where “and” joins values, the source holds several entries; their conditions need not be identical. Equal entries are not always repeated.

Tests used:
[1] = Prodrug aqueous stability at pH 7.4, 6.0 and 1.2; type: physicochemical
[2] = cited from earlier work
[3] = cited from earlier work; remark: listed apart in the source
BlaC = conditions: cited from earlier work

SMILES: CC(C)OC(=O)OC(C)OC(=O)C1=C(S[C@@H]2CN[C@H](C(=O)N(C)C)C2)[C@H](C)[C@@H]2[C@@H]([C@@H](C)O)C(=O)N12 (some centres unmarked) [Compound 2]
- % of each diastereomer hydrolyzed to 1 ([1]; physiological pH 7.4, period of 2 hours): 10% and 13%

SMILES: C[C@@H](O)[C@H]1C(=O)N2C(C(=O)OCOC(=O)O[C@H]3CCCCc4ccccc43)=C(S[C@@H]3CN[C@H](C(=O)N(C)C)C3)[C@H](C)[C@H]12 [Compound 19, (S)-Benzosuber-1-yloxycarbonyloxymethyl (1R, 5S,6S)-2-{[(2S,4S)-2-(N,N-dimethylcarbamoyl)pyrrolidin-4-yl]thio}-6-[(1R)-1-hydroxyethyl]-1-methylcarbapen-2-em-3-carboxylate]
- times more stable to hydrolysis compared with 1-tetralyl (18 and 21) and 1-indanyl (17 and 20) prodrugs ([1]; intestinal pH): 37 times
- times more stable to hydrolysis compared with 1-tetralyl (18 and 21) and 1-indanyl (17 and 20) prodrugs ([1]; physiological pH): 20 times

SMILES: C[C@@H](O)[C@H]1C(=O)N2C(C(=O)OCOC(=O)O[C@@H]3CCc4ccccc43)=C(S[C@@H]3CN[C@H](C(=O)N(C)C)C3)[C@H](C)[C@H]12 [Compound 20, (R)-Indan-1-yloxycarbonyloxymethyl (1/R, 5S,6S)-2-{[(2S,4S)-2-(N,N-dimethylcarbamoyl)pyrrolidin-4-yl]thio}-6-[(1/R)-1-hydroxyethyl]-1-methylcarbapen-2-em-3-carboxylate]
- half-life at 100 µM ([1]; buffer, pH 7.4): < 1 min

SMILES: C[C@@H](O)[C@H]1C(=O)N2C(C(=O)OCOC(=O)O[C@@H]3CCCCc4ccccc43)=C(S[C@@H]3CN[C@H](C(=O)N(C)C)C3)[C@H](C)[C@H]12 [Compound 22, (R)-Benzosuber-1-yloxycarbonyloxymethyl (1R,5S, 6S)-2-{[(2S,4S)-2-(N,N-dimethylcarbamoyl)pyrrolidin-4-yl]thio}-6-[(1R)-1-hydroxyethyl]-1-methylcarbapen-2-em-3-carboxylate]
- times more stable to hydrolysis compared with 1-tetralyl (18 and 21) and 1-indanyl (17 and 20) prodrugs ([1]; intestinal pH): 37 times
- times more stable to hydrolysis compared with 1-tetralyl (18 and 21) and 1-indanyl (17 and 20) prodrugs ([1]; physiological pH): 20 times

SMILES: CC(OC(=O)O[C@H]1CCCCc2ccccc21)OC(=O)C1=C(S[C@@H]2CN[C@H](C(=O)N(C)C)C2)[C@H](C)[C@@H]2[C@@H]([C@@H](C)O)C(=O)N12 (stereo partly drawn) [Compound 23a, (1S,1′S/R)-Benzosuber-1-yloxycarbonyloxyethyl (1R,5S,6S)-2-{[(2S,4S)-2-(N,N-dimethylcarbamoyl)pyrrolidin-4-yl]thio}-6-[(1R)-1-hydroxyethyl]-1-methylcarbapen-2-em-3-carboxylate]
- improvement of stability relative to prodrug 19 ([1]; 100 µM): about 2 fold

SMILES: CC(=O)N1C[C@@H](SC2=C(C(=O)OCOC(=O)O[C@H]3CCCCc4ccccc43)N3C(=O)[C@H]([C@@H](C)O)[C@H]3[C@H]2C)C[C@H]1C(=O)N(C)C [Compound 24a, (S)-Benzosuber-1-yloxycarbonyloxymethyl (1R,5S,6S)-2-{[(2S,4S)-1-acetyl-2-(N,N-dimethylcarbamoyl)pyrrolidin-4-yl]thio}-6-[(1R)-1-hydroxyethyl]-1-methylcarbapen-2-em-3-carboxylate]
- change in the hydrolysis rate relative to prodrug 19 ([1]; N-acetyl derivative, aqueous buffers): no significant change

SMILES: C[C@@H](O)[C@H]1C(=O)N2C(C(=O)O)=C(S[C@@H]3CN[C@H](C(=O)N(C)C)C3)[C@H](C)[C@H]12 [Meropenem]
- oral absorption [2]: negligible
- Log D [3]: < −2.5

SMILES: O=C(O)[C@H]1/C(=C/CO)O[C@@H]2CC(=O)N21 [clavulanate]
- inhibition of BlaC (BlaC): irreversibly inhibited
